Assay results reported in article PMC4914440 (Pharmacological research, 2016).
Like-named read-outs stand apart in the source and are kept apart here.

Tests used:
α1β2γ2 GABAA receptors = α1β2γ2 GABAA receptors (Rattus norvegicus, UniProt P18508+P62813+P63138); assay: Whole cell electrophysiology, GABA-activated currents, HEK293 cells; format: cell-based; details: 30 μM; for reduction of GABA-activated currents: EC30 GABA (5 μM)
h5-HT2C = molecular target: T1, h5-HT2C (Homo sapiens, UniProt P28335); assay: Radioligand displacement by a fixed drug concentration, [3H]mesulergine
T1 sequence (P28335 33-458): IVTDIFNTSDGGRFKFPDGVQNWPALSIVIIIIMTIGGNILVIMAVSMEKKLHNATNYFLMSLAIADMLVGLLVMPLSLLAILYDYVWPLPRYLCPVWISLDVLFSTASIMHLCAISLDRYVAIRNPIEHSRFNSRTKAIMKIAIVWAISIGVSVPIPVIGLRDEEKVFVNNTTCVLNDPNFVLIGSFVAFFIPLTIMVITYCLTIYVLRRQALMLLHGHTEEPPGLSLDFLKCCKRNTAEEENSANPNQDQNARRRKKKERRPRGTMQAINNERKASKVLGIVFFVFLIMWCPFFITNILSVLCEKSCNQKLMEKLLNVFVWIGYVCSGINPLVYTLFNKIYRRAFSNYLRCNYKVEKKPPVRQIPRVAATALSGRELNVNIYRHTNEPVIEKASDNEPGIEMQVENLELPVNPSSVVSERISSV

r5-HT6 = r5-HT6 (Rattus norvegicus, UniProt P31388); assay: Radioligand displacement by a fixed drug concentration, [3H]LSD
Chain of r5-HT6 (P31388 whole entry): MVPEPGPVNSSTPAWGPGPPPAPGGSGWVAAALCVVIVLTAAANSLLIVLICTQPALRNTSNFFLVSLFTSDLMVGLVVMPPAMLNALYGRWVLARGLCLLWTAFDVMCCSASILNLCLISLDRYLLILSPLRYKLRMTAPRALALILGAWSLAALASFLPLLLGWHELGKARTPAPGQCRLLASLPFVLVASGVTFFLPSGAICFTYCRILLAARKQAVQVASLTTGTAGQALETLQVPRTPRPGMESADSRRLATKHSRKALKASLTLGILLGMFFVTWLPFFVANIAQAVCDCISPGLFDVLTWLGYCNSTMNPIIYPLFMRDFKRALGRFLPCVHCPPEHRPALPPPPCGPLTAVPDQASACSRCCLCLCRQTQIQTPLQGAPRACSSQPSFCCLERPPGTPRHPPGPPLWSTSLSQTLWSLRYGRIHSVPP

h5-HT2A = h5-HT2A (Homo sapiens, UniProt P28223)
Chain of h5-HT2A (P28223 whole entry): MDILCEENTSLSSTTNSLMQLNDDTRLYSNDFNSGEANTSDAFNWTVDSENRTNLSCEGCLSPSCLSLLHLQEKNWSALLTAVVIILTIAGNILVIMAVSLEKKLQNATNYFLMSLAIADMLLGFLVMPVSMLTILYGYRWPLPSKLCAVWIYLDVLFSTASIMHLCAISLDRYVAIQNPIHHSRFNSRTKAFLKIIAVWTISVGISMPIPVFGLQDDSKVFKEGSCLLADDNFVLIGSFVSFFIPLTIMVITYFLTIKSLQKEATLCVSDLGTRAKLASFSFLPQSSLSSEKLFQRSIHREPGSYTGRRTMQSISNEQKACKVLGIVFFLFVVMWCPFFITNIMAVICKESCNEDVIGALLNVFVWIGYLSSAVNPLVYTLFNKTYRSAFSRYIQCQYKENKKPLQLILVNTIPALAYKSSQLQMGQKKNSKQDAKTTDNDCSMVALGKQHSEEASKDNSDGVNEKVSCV

untransfected CHO cells = assay: Intracellular calcium assay, control cells; format: cell-based; details: data not shown
[1] = cited from earlier work
5-HT2A receptor [2] = molecular target: T2, 5-HT2A receptor (Homo sapiens, UniProt P28223); details: cloned human 5-HT2A receptor; cited from earlier work
T2 sequence (P28223 whole entry): as above

[3] = test system: endogenous β-adrenergic receptor; assay: cAMP-Glo assay, untransfected HeLa cells stimulated with; format: cell-based, human
5-HT6 receptor [4] = molecular target: T3, 5-HT6 receptor (Rattus norvegicus, UniProt P31388); assay: cAMP-Glo assay of Gs signaling, HeLa cells; format: cell-based
T3 sequence (P31388 whole entry): as the sequence (P31388 whole entry) above

untransfected HeLa cells = assay: cAMP-Glo assay, control cells; format: cell-based, human; details: efavirenz 30 μM, clozapine 30 μM, 5-HT 1 μM
5-HT2A receptor [5] = molecular target: T2, 5-HT2A receptor; assay: Intracellular calcium assay of Gq signaling, HEK293 cells; format: cell-based; details: for agonist efficacy class: intracellular calcium
5-HT6 receptor [6] = molecular target: T3, 5-HT6 receptor; assay: Competition radioligand binding, concentration-response
M3 muscarinic receptor = M3 muscarinic receptor (Homo sapiens, UniProt P20309); assay: Intracellular calcium assay, untransfected HEK293 cells with endogenous receptor; format: cell-based
Chain of M3 muscarinic receptor (P20309 whole entry): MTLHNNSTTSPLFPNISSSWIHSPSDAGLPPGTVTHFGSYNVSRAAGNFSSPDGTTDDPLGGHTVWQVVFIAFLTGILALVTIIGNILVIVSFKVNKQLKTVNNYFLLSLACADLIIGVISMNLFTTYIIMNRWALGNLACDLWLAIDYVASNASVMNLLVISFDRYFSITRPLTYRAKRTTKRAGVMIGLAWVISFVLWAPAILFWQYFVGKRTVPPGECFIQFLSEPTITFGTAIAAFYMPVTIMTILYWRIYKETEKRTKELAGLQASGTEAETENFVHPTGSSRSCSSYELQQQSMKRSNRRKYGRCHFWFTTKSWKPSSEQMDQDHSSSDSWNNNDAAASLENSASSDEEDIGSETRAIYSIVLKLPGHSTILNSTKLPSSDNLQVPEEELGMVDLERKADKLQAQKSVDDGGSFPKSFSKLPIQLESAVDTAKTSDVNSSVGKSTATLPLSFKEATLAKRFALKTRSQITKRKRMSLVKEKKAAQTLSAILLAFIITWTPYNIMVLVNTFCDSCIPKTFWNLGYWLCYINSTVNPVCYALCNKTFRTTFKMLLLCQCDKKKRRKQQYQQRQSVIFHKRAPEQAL

Chain of α1β2γ2 GABAA receptors (P62813 28-455): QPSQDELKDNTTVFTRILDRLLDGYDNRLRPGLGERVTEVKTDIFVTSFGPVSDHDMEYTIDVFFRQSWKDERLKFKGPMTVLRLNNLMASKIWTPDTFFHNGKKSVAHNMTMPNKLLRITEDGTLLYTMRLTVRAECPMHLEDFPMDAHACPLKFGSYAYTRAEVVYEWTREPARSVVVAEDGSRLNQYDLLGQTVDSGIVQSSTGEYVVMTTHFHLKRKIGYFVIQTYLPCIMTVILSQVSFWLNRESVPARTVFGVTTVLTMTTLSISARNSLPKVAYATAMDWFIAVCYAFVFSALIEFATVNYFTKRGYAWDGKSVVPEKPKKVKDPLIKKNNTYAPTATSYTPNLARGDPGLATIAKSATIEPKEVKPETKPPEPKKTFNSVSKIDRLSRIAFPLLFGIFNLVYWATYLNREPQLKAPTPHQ
Chain of α1β2γ2 GABAA receptors (P63138 26-474): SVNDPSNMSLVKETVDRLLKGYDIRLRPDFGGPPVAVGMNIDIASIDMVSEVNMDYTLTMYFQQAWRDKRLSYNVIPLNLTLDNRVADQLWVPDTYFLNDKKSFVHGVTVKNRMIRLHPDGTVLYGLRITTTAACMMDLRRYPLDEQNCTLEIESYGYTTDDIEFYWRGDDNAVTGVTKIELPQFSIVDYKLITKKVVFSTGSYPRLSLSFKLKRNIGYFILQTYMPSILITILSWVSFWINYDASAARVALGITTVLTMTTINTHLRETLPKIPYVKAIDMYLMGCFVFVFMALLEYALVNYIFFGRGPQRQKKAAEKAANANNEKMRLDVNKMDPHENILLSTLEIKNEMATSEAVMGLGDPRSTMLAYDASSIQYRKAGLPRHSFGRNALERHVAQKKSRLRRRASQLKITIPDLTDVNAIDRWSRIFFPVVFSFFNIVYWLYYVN
Chain of α1β2γ2 GABAA receptors (P18508 39-466): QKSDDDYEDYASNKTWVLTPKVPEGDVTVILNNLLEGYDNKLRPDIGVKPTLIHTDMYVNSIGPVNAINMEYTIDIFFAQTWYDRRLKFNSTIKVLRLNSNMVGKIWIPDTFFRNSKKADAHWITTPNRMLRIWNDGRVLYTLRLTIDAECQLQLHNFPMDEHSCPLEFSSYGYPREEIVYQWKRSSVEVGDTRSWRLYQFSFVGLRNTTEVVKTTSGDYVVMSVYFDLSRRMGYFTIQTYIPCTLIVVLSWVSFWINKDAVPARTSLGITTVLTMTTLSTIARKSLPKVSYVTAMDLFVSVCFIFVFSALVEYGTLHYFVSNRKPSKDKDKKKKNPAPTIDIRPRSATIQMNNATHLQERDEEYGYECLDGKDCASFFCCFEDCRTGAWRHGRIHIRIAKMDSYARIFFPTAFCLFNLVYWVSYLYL

Compound: Nc1nc(=O)n([C@@H]2CS[C@H](CO)O2)cc1F [FTC]
- reduction of GABA-activated currents (α1β2γ2 GABAA receptors): 36–50 % of control
- interaction (radioligand displacement) (h5-HT2C; 10 μM ARV drug, data not shown): no significant interactions
- interaction (radioligand displacement) (h5-HT2C; 60 μM ARV drug): only NVP displayed a significant, albeit comparatively weak interaction, with the 5-HT6 receptor
- interaction (radioligand displacement) (r5-HT6; 10 μM ARV drug, data not shown): no significant interactions
- interaction (radioligand displacement) (r5-HT6; 60 μM ARV drug): only NVP displayed a significant, albeit comparatively weak interaction, with the 5-HT6 receptor
- interaction (radioligand displacement) (h5-HT2A; 10 μM ARV drug, data not shown): no significant interactions
- interaction (radioligand displacement) (h5-HT2A; 60 μM ARV drug): only NVP displayed a significant, albeit comparatively weak interaction, with the 5-HT6 receptor

Compound: C[N+](C)(C)CCOC(N)=O [carbachol]
- Gq-mediated response (untransfected CHO cells): No Gq-mediated response

Compound: COc1cccc([C@H](O)C2CCN(CCc3ccc(F)cc3)CC2)c1OC [MDL100,907]
- effect of pretreatment on efavirenz substitution for LSD [1]: this substitution was blocked by pretreatment

Compound: CN1CN(c2ccccc2)C2(CCN(CCCC(=O)c3ccc(F)cc3)CC2)C1=O [[^3H]MSP, [3H]methylspiperone]
- Kd (5-HT2A receptor [2]): 0.246 nM

Compound: CC(C)(C)NC[C@H](O)COc1nsnc1N1CCOCC1 [timolol]
- effect on (−)-epinephrine stimulated cAMP response [3]: blocked

Compound: CN1CCN(C2=Nc3cc(Cl)ccc3Nc3ccccc32)CC1 [clozapine]
- effect on 5-HT agonist effect (5-HT6 receptor [4]; 30 μM): completely overcame the agonist effects of 5-HT but also reduced cAMP levels to below basal
- effect on basal cAMP (5-HT6 receptor [4]; 30 μM): significantly reduced basal levels of cAMP
- change in cAMP levels (untransfected HeLa cells): no significant changes in cAMP levels

Compound: Cc1cn([C@H]2C[C@H](N=[N+]=[N-])[C@@H](CO)O2)c(=O)[nH]c1=O [ZDV]
- reduction of GABA-activated currents (α1β2γ2 GABAA receptors): 36–50 % of control
- interaction (radioligand displacement) (h5-HT2C; 10 μM ARV drug, data not shown): no significant interactions
- interaction (radioligand displacement) (h5-HT2C; 60 μM ARV drug): only NVP displayed a significant, albeit comparatively weak interaction, with the 5-HT6 receptor
- interaction (radioligand displacement) (r5-HT6; 10 μM ARV drug, data not shown): no significant interactions
- interaction (radioligand displacement) (r5-HT6; 60 μM ARV drug): only NVP displayed a significant, albeit comparatively weak interaction, with the 5-HT6 receptor

Compound: CCN(CC)C(=O)[C@@H]1C=C2c3cccc4[nH]cc(c34)C[C@H]2N(C)C1 [LSD, Lysergic acid diethylamide]
- agonist efficacy class (5-HT2A receptor [5]): partial agonists
- substitution when efavirenz was the discriminative stimulus [1]: partially substituted for efavirenz

Compound: NCCc1c[nH]c2ccc(O)cc12 [serotonin, 5-Hydroxytryptamine]
- EC50 (5-HT6 receptor [4]): 12.7 ± 6.2 nM
- pseudo Hill slope (5-HT6 receptor [4]; increase in cAMP): 1.02 ± 0.35
- Ki (5-HT6 receptor [6]): 105 ± 8 nM
- pseudo Hill slope range (5-HT2A receptor [5]; across serum conditions): 0.55–0.70
- change in cAMP levels (untransfected HeLa cells): no significant changes in cAMP levels

Compound: Cc1ccnc2c1NC(=O)c1cccnc1N2C1CC1 [NVP]
- potentiation of GABA-activated currents (α1β2γ2 GABAA receptors; co-application with GABA): 8%
- interaction (radioligand displacement) (h5-HT2C; 10 μM ARV drug, data not shown): no significant interactions
- interaction (radioligand displacement) (h5-HT2C; 60 μM ARV drug): only NVP displayed a significant, albeit comparatively weak interaction, with the 5-HT6 receptor
- interaction (radioligand displacement) (r5-HT6; 10 μM ARV drug, data not shown): no significant interactions
- interaction (radioligand displacement) (r5-HT6; 60 μM ARV drug): significant, albeit comparatively weak interaction
- affinity lower than for efavirenz (r5-HT6; 5-HT6 receptor, estimated): approximately 30 fold

Compound: CN1[C@@H]2C[C@@H](OC(=O)[C@H](CO)c3ccccc3)C[C@H]1[C@@H]1O[C@@H]12 [scopolamine]
- block of acetylcholine response (M3 muscarinic receptor): blocked

Compound: CC(=O)OCC[N+](C)(C)C [acetylcholine]
- receptor activation (M3 muscarinic receptor): activated
- Gq-mediated response (untransfected CHO cells): No Gq-mediated response

Compound: COc1cc(CC(C)N)c(OC)cc1I (racemic) [(±)-DOI]
- agonist efficacy class (5-HT2A receptor [5]): partial agonists
